# Biological target: P2X7 (Homo sapiens (Human), UniProt Q99572)
# Assay: P2X7 antagonism in human PBMCs (LPS + Bz-ATP induced IL-1β release, ELISA);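 also: PBMCs from donor human blood, with a further 1.5 h incubation of the cells in the assay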
# Assay type: cell-based
# Conditions: compound 1 μM, LPS 30 ng/ml, Bz-ATP 0.5 mM
# Experimental: Human blood was collected using a blood donor program. PBMCs were isolated from blood using a Ficoll density gradient technique. Briefly, blood was laid on Ficoll solution and centrifuged at RT for 20 minutes at 2000 rpm. The buffy layer (between red blood cells and plasma) was carefully collected by aspiration, washed with PBS and centrifuged again at 1500 rpm for 15 minutes. The resulting cell pellet was washed and plated on 96 well-plates for experiments. For the Mouse/Human Whole Blood experiments, 150 μl of either mouse or human blood was platted on 96 well-plates. Lipopolysaccharide (LPS) (30 ng/ml) was added to each well and incubated for 1 hour. Test compounds were then added and incubated for 30 minutes. The P2X7 agonist, 2′(3′)-O-(4-benzoylbenzoyl) adenosine 5′ triphosphate (Bz-ATP) was then added at a final concentration of 0.5 mM (PBMC) or 1 mM (blood). Cells were incubated for an additional 1.5 hours. At that point, supernatant was collected and stored for IL-1β assay using manufacturer's protocol for enzyme-linked immunosorbent assay (ELISA). Data was expressed as percent control, where control is defined as the difference in IL-1β release in LPS+Bz-ATP samples and LPS only samples. Data was plotted as response (% control) versus concentration to generate IC50 values.
# Sequence of P2X7 (Q99572 whole entry): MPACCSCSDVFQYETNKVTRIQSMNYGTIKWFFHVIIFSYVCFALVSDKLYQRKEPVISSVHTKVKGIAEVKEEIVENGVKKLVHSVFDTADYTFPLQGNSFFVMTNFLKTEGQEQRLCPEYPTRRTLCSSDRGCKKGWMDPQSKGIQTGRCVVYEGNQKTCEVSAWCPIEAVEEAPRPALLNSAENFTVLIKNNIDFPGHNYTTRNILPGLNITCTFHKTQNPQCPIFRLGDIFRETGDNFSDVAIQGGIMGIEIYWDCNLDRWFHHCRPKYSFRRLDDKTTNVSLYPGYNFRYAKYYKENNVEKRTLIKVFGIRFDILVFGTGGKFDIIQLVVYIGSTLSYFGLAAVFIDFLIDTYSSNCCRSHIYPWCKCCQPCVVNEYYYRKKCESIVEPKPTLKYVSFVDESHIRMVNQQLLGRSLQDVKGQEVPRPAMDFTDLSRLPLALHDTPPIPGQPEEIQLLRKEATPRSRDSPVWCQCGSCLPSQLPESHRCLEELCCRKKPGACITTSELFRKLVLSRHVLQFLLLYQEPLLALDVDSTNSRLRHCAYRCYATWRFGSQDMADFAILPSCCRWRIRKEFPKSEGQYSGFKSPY
row,Compound,PBMC 1 μM (% control)
1,"O=C(c1cccnc1C(F)(F)F)N1CCc2c(-c3ccccc3)n[nH]c2C1 [Example 322, (3-phenyl-4,5-dihydro-1H-pyrazolo[3,4-c]pyridin-6(7H)-yl)(2-(trifluoromethyl)pyridin-3-yl)methanone]",100.4
2,"O=C(c1cccc(Cl)c1Cl)N1CCc2ncn(-c3ccccn3)c2C1 [Example 9, (2,3-Dichlorophenyl)(3-(pyridin-2-yl)-6,7-dihydro-3H-imidazo[4,5-c]pyridin-5(4H)-yl)methanone]",83.7
3,"O=C(c1c(Cl)cccc1Cl)N1CCc2c(-c3ccccc3)n[nH]c2C1 [Example 324, (2,6-dichlorophenyl)(3-phenyl-4,5-dihydro-1H-pyrazolo[3,4-c]pyridin-6(7H)-yl)methanone]",100.4
4,"O=C(c1cccc(Cl)c1Cl)N1CCc2c(ncn2-c2ccccc2)C1 [Example 3, (2,3-Dichlorophenyl)(1-phenyl-6,7-dihydro-1H-imidazo[4,5-c]pyridin-5(4H)-yl)methanone]",23.0
5,"O=C(c1ccc(F)cc1Cl)N1CCc2c(-c3ccccc3)n[nH]c2C1 [Example 323, (2-chloro-4-fluorophenyl)(3-phenyl-4,5-dihydro-1H-pyrazolo[3,4-c]pyridin-6(7H)-yl)methanone]",102.4
6,"Cn1nc2c(c1-c1cccnc1)CCN(C(=O)c1cccc(Cl)c1Cl)C2 [Example 111, 6-[(2,3-Dichlorophenyl)carbonyl]-2-methyl-3-pyridin-3-yl-4,5,6,7-tetrahydro-2H-pyrazolo[3,4-c]pyridine]",15.7
7,"O=C(c1cccc(Cl)c1Cl)N1CCc2c(-c3ccccc3)n[nH]c2C1 [Example 100, 6-[(2,3-Dichlorophenyl)carbonyl]-3-phenyl-4,5,6,7-tetrahydro-1H-pyrazolo[3,4-c]pyridine]",9.2
8,"O=C(c1cccc(C(F)(F)F)c1Cl)N1CCc2ncn(-c3ccccn3)c2C1 [Example 8, (2-Chloro-3-(trifluoromethyl)phenyl)(3-(pyridin-2-yl)-6,7-dihydro-3H-imidazo[4,5-c]pyridin-5(4H)-yl)methanone]",83.1
9,"CC1(C)Cc2cccc(C(=O)N3CCc4c(ncn4-c4ccccc4)C3)c2O1 [Example 52, 5-[(2,2-Dimethyl-2,3-dihydro-1-benzofuran-7-yl)carbonyl]-1-phenyl-4,5,6,7-tetrahydro-1H-imidazo[4,5-c]pyridine]",98.9
10,"COc1ccccc1-n1nnc2c1CCN(C(=O)c1cccc(C(F)(F)F)c1F)C2 [Example 124, (2-Fluoro-3-(trifluoromethyl)phenyl)(1-(2-methoxyphenyl)-6,7-dihydro-1H-[1,2,3]triazolo[4,5-c]pyridin-5(4H)-yl)methanone]",94.7
11,"CC1c2ncn(-c3ccccc3)c2CCN1C(=O)c1cccc(C(F)(F)F)c1Cl (stereo not shown) [Example 12, (2-Chloro-3-(trifluoromethyl)phenyl)(4-methyl-1-phenyl-6,7-dihydro-1H-imidazo[4,5-c]pyridin-5(4H)-yl)methanone]",11.2

# Same assay, conditions: compound 10 μM, LPS 30 ng/ml, Bz-ATP 0.5 mM
row,Compound,PBMC 10 μM (% control)
1,"COCCn1ccc(-n2nnc3c2CCN(C(=O)c2cccc(C(F)(F)F)c2Cl)[C@@H]3C)n1 (single isomer, unassigned) [Example 248, (R*)-(2-Chloro-3-(trifluoromethyl)phenyl)(1-(1-(2-methoxyethyl)-1H-pyrazol-3-yl)-4-methyl-6,7-dihydro-1H-[1,2,3]triazolo[4,5-c]pyridin-5(4H)-yl)methanone]",74.3
2,"CC1c2ncn(-c3ccc(F)cn3)c2CCN1C(=O)c1cccc(C(F)(F)F)c1Cl (stereo not shown) [Example 11, (2-Chloro-3-(trifluoromethyl)phenyl)(1-(5-fluoropyridin-2-yl)-4-methyl-6,7-dihydro-1H-imidazo[4,5-c]pyridin-5(4H)-yl)methanone]",25.2
3,"C[C@@H]1Cc2c(nnn2-c2ccn[nH]2)[C@H](C)N1C(=O)c1cccc(C(F)(F)F)c1Cl [Example 309, (2-chloro-3-(trifluoromethyl)phenyl)((4S,6R)-4,6-dimethyl-1-(1H-pyrazol-5-yl)-6,7-dihydro-1H-[1,2,3]triazolo[4,5-c]pyridin-5(4H)-yl)methanone]",1.4
4,"C[C@H]1Cc2c(nnn2-c2ncc(F)cn2)CN1C(=O)c1cccc(C(F)(F)F)c1 [Example 304, (S)-(1-(5-fluoropyrimidin-2-yl)-6-methyl-6,7-dihydro-1H-[1,2,3]triazolo[4,5-c]pyridin-5(4H)-yl)(3-(trifluoromethyl)phenyl)methanone]",3.2
5,"C[C@H]1Cc2c(nnn2-c2ncc(F)cn2)CN1C(=O)c1ccc(F)c(Cl)c1Cl (single isomer, unassigned) [Example 215, (6S*)-5-[(2,3-Dichloro-4-fluorophenyl)carbonyl]-1-(5-fluoropyrimidin-2-yl)-6-methyl-4,5,6,7-tetrahydro-1H-[1,2,3]triazolo[4,5-c]pyridine]",2.7
6,"COc1ccnc(-n2nnc3c2CCN(C(=O)c2cccc(C(F)(F)F)c2Cl)[C@@H]3C)c1 (single isomer, unassigned) [Example 152, (S*)-(2-Chloro-3-(trifluoromethyl)phenyl)(1-(4-methoxypyridin-2-yl)-4-methyl-6,7-dihydro-1H-[1,2,3]triazolo[4,5-c]pyridin-5(4H)-yl)methanone]",15.4
7,"C[C@H]1c2ncn(-c3ncc(F)cn3)c2CCN1C(=O)c1cccc(C(F)(F)F)c1Cl (single isomer, unassigned) [Example 194, (S*)-(2-Chloro-3-(trifluoromethyl)phenyl)(1-(5-fluoropyrimidin-2-yl)-4-methyl-6,7-dihydro-1H-imidazo[4,5-c]pyridin-5(4H)-yl)methanone]",−12.8
8,"C[C@@H]1Cc2c(nnn2-c2ncc(F)cn2)CN1C(=O)c1ccc(F)c(Cl)c1Cl (single isomer, unassigned) [Example 214, (6R*)-5-[(2,3-Dichloro-4-fluorophenyl)carbonyl]-1-(5-fluoropyrimidin-2-yl)-6-methyl-4,5,6,7-tetrahydro-1H-[1,2,3]triazolo[4,5-c]pyridine]",8.2
9,"C[C@@H]1Cc2c(nnn2-c2ncc(F)cn2)CN1C(=O)c1ccc(Cl)c(F)c1Cl (single isomer, unassigned) [Example 217, (6R*)-5-[(2,4-Dichloro-3-fluorophenyl)carbonyl]-1-(5-fluoropyrimidin-2-yl)-6-methyl-4,5,6,7-tetrahydro-1H-[1,2,3]triazolo[4,5-c]pyridine]",60.8
10,"CC1Cc2c(nnn2-c2ncc(F)cn2)CN1C(=O)c1cccc(C(F)(F)F)c1F (stereo not shown) [Example 311, (2-fluoro-3-(trifluoromethyl)phenyl)(1-(5-fluoropyrimidin-2-yl)-6-methyl-6,7-dihydro-1H-[1,2,3]triazolo[4,5-c]pyridin-5(4H)-yl)methanone]",63.6
11,"C[C@@H]1c2ncn(-c3ccccn3)c2CCN1C(=O)c1cccc(C(F)(F)F)c1Cl (single isomer, unassigned) [Example 44, (4R*)-5-{[2-Chloro-3-(trifluoromethyl)phenyl]carbonyl}-4-methyl-1-pyridin-2-yl-4,5,6,7-tetrahydro-1H-imidazo[4,5-c]pyridine]",44.7
12,"C[C@H]1Cc2c(nnn2-c2ccc(F)cc2)[C@H](C)N1C(=O)c1cccc(C(F)(F)F)c1Cl [Example 285, (2-chloro-3-(trifluoromethyl)phenyl)((4S,6S)-1-(4-fluorophenyl)-4,6-dimethyl-6,7-dihydro-1H-[1,2,3]triazolo[4,5-c]pyridin-5(4H)-yl)methanone]",−2.6
13,"C[C@@H]1Cc2c(nnn2-c2ccccn2)CN1C(=O)c1cccc(C(F)(F)F)c1Cl (single isomer, unassigned) [Example 119, 5-{[2-Chloro-3-(trifluoromethyl)phenyl]carbonyl}-(R*)-6-methyl-1-pyridin-2-yl-4,5,6,7-tetrahydro-1H-[1,2,3]triazolo[4,5-c]pyridine]",20.0
14,"Cc1ccnc(-n2nnc3c2CCN(C(=O)c2cccc(C(F)(F)F)c2Cl)[C@H]3C)c1 (single isomer, unassigned) [Example 186, (S*)-(2-chloro-3-(trifluoromethyl)phenyl)(4-methyl-1-(4-methylpyridin-2-yl)-6,7-dihydro-1H-[1,2,3]triazolo[4,5-c]pyridin-5(4H)-yl)methanone]",−0.5
15,"CC1c2nnn(-c3ncc(F)cn3)c2CCN1C(=O)c1cccc(C(F)(F)F)c1Cl (stereo not shown) [Example 153, (2-Chloro-3-(trifluoromethyl)phenyl)(1-(5-fluoropyrimidin-2-yl)-4-methyl-6,7-dihydro-1H-[1,2,3]triazolo[4,5-c]pyridin-5(4H)-yl)methanone]",28.9
16,"CC1c2nnn(-c3ncc(F)cn3)c2CCN1C(=O)c1cccc(C(F)(F)F)c1F (stereo not shown) [Example 175, (2-fluoro-3-(trifluoromethyl)phenyl)(1-(5-fluoropyrimidin-2-yl)-4-methyl-6,7-dihydro-1H-[1,2,3]triazolo[4,5-c]pyridin-5(4H)-yl)methanone]",4.5
17,"CC1Cc2c(nnn2-c2cnccn2)CN1C(=O)c1cccc(C(F)(F)F)c1Cl (stereo not shown) [Example 209, 5-{[2-Chloro-3-(trifluoromethyl)phenyl]carbonyl}-6-methyl-1-pyrazin-2-yl-4,5,6,7-tetrahydro-1H-[1,2,3]triazolo[4,5-c]pyridine]",−1.0

# From patent US9464084B2, “P2X7 modulators” (Janssen Pharmaceutica NV, priority 2013, dated 2016)
